The results in this text go back to patent US9718808B2, “Inhibitors of the renal outer medullary potassium channel” (Merck Sharp & Dohme Corp., priority 2014, dated 2017).

Sequence of ROMK (Kir1.1) channel (P48048 whole entry): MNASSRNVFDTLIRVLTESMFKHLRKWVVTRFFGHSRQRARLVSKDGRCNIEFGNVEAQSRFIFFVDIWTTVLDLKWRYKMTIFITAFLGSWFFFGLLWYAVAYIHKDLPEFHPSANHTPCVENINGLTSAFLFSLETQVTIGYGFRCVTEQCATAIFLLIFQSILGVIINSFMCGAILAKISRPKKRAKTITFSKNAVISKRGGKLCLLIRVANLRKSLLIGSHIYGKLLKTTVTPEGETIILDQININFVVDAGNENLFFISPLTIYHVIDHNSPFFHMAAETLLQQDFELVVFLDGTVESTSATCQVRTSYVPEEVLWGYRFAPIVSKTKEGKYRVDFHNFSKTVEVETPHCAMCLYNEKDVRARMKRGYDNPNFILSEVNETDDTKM

The target of the experiment is ROMK (Kir1.1) channel (Homo sapiens (Human), UniProt P48048). Nature of the experiment: Thallium Flux Assay. The format is cell-based. Here is the method:
A Thallium Flux Assay was performed on each of the final product compounds of the Examples. This assay has been described previously; see, e.g., PCT Published Application WO 2013/062900.
As for `CC1=C(N2CC[C@]3(CC[C@@H](N[C@@H](C)c4ccc5c(c4)Cn4nnnc4-5)CC3)C2=O)COC1=O` [Example 31, (5S,8r)-2-(4-methyl-5-oxo-2,5-dihydrofuran-3-yl)-8-{[(1S)-1-(5H-tetrazolo[5,1-a]isoindol-7-yl)ethyl]amino}-2-azaspiro[4.5]decan-1-one], 0.26 µM corresponded to half-maximal inhibition (IC50). Then `CC1=C(N2CC[C@]3(CC[C@@H](N(C)Cc4nnc(-n5cnnn5)cc4C)CC3)C2=O)COC1=O` [Example 107], with 0.022 µM.

`C[C@@H]1C[C@]2(CC[C@H](NCc3ccc4c(c3)Cn3nnnc3-4)CC2)C(=O)N1C1=CC(=O)OC1` [Example 65, (3R,5s,8S)-8-(((5H-tetrazolo[5,1-a]isoindol-7-yl)methyl)amino)-3-methyl-2-(5-oxo-2,5-dihydrofuran-3-yl)-2-azaspiro[4.5]decan-1-one] came in with an IC50 of 0.019 µM.

Take `C[C@H]1C[C@]2(CC[C@H](NCc3cnc(-n4cnnn4)cn3)CC2)C(=O)N1C1=CC(=O)OC1` [Example 28, (3S,5s,8R)-3-methyl-2-(5-oxo-2,5-dihydrofuran-3-yl)-8-({[5-(1H-tetrazol-1-yl)pyrazin-2-yl]methyl}amino)-2-azaspiro[4.5]decan-1-one]: half-maximal inhibition (IC50) required 0.25 µM. For `CC1=C(N2CC[C@]3(CC[C@H](N(C)C[C@H](O)c4ccc5c(c4C)COC5=O)CC3)C2=O)COC1=O` [Example 123], it took 0.077 µM to reach half-maximal inhibition (IC50). Then `CC1=C(N2CC[C@]3(CC[C@@H](N(C)Cc4cnc(-n5cnnn5)cn4)CC3)C2=O)COC1=O` [Example 92], with 0.029 µM; and `CC1=C(N2CC[C@]3(CC[C@@H](N(C)Cc4ncc(-n5cnnn5)nc4C)CC3)C2=O)COC1=O` [Example 125], with 0.022 µM. `CC1=C(N2CC[C@]3(CC[C@](C)(N(C)Cc4cnc(-n5cnnn5)cn4)CC3)C2=O)COC1=O` [Example 127] came in with an IC50 of 0.091 µM. Compared with the last compound, the IC50 is about 4.1-fold higher.

With `CC1=C(N2CC[C@]3(CC[C@@H](NCc4ccc5c(c4)Cn4nnnc4-5)CC3)C2=O)COC1=O` [Example 11, (5r,8r)-2-(4-methyl-5-oxo-2,5-dihydrofuran-3-yl)-8-[(5H-tetrazolo[5,1-a]isoindol-7-ylmethyl)amino]-2-azaspiro[4.5]decan-1-one], the IC50 turned out to be 0.11 µM.

`CC1C[C@]2(CC[C@@H](NCc3cnc(-n4cnnn4)cn3)CC2)C(=O)N1C1=CC(=O)OC1` (stereo partly shown) [Example 50, (5r,8r)-3-methyl-2-(5-oxo-2,5-dihydrofuran-3-yl)-8-({[5-(1H-tetrazol-1-yl)pyrazin-2-yl]methyl}amino)-2-azaspiro[4.5]decan-1-one] came in with an IC50 of 0.039 µM. To `CCN(Cc1ccc2c(c1)Cn1nnnc1-2)[C@H]1CC[C@@]2(CCN(C3=C(C)C(=O)OC3)C2=O)CC1` [Example 133] belongs 0.036 µM; to `CC1=C(N2CC[C@]3(CC[C@@H](N(CCO)Cc4ccc(-n5cnnn5)nc4)CC3)C2=O)COC1=O` [Example 130, (5r,8r)-8-(((6-(1H-tetrazol-1-yl)pyridin-3-yl)methyl)(2-hydroxyethyl)amino)-2-(4-methyl-5-oxo-2,5-dihydrofuran-3-yl)-2-azaspiro[4.5]decan-1-one], 0.03 µM. As to `CC1=C(N2CC[C@]3(CC[C@@H](N(C)Cc4ccc(-n5ncnn5)nn4)CC3)C2=O)COC1=O` [Example 113], the IC50 was determined as 0.036 µM.

“(5s,8s)-2-(4-methyl-5-oxo-2,5-dihydrofuran-3-yl)-8-({[5-(1H-tetrazol-1-yl)pyrazin-2-yl]methyl}amino)-2-azaspiro[4.5]decan-1-one [Example 13]” gave an IC50 of 0.032 µM.

As to `CC1=C(N2CC[C@]3(CC[C@@](C)(N(C)Cc4ccc(-n5cnnn5)nn4)CC3)C2=O)COC1=O` [Example 116], inhibition was half-maximal at 0.024 µM (IC50). This IC50 and that of the compound before are within 1.5-fold of each other. Then `CC1C[C@]2(CC[C@@H](NCc3cnc(-n4cnnn4)cn3)CC2)C(=O)N1C1=CC(=O)OC1` (stereo partly shown) [Example 49, (5r,8r)-3-methyl-2-(5-oxo-2,5-dihydrofuran-3-yl)-8-({[5-(1H-tetrazol-1-yl)pyrazin-2-yl]methyl}amino)-2-azaspiro[4.5]decan-1-one], with 0.24 µM.
